Assay results from PubChem BioAssay (NCI).
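Exposure lasted 48 hours, with cells grown in 96-well plates and compounds tested at five concentrations. TGI marks complete inhibition of growth.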

Tests used:
Assay in all cases: NCI tumour cell line growth inhibition, 48 h
[1] = system: EKVX NSCLC
[2] = system: SF-268 CNS
[3] = system: OVCAR-8 ovarian
[4] = system: SF-295 CNS
[5] = system: A549 NSCLC
[6] = system: HOP-92 NSCLC
[7] = system: IGROV1 ovarian
[8] = system: MALME-3M melanoma
[9] = system: COLO 205 colon
[10] = system: SW-620 colon
[11] = system: SNB-19 CNS
[12] = system: MDA-MB-231 breast
[13] = system: SR leukemia
[14] = system: CCRF-CEM leukemia
[15] = system: UACC-62 melanoma
[16] = system: SK-OV-3 ovarian
[17] = system: HT29 colon
[18] = system: HL-60(TB) leukemia
[19] = system: OVCAR-3 ovarian
[20] = system: HCT-15 colon
[21] = system: SF-539 CNS
[22] = system: TK-10 renal
[23] = system: RXF 393 renal
[24] = system: SK-MEL-28 melanoma
[25] = system: NCI/ADR-RES ovarian
[26] = system: T-47D breast
[27] = system: OVCAR-4 ovarian
[28] = system: ACHN renal
[29] = system: KM12 colon
[30] = system: M14 melanoma
[31] = system: U251 CNS
[32] = system: OVCAR-5 ovarian
[33] = system: SNB-75 CNS
[34] = system: NCI-H23 lung
[35] = system: HCC-2998 colon
[36] = system: MDA-MB-435
[37] = system: MOLT-4 leukemia
[38] = system: NCI-H460 lung
[39] = system: SN12C renal
[40] = system: NCI-H226 lung
[41] = system: HS 578T breast
[42] = system: HOP-62 NSCLC
[43] = system: CAKI-1 renal
[44] = system: DU-145 prostate
[45] = system: HCT-116 colon
[46] = system: NCI-H522 lung
[47] = system: LOX IMVI melanoma
[48] = system: K-562 leukemia
[49] = system: 786-0 renal
[50] = system: UACC-257 melanoma
[51] = system: A498 renal
[52] = system: MCF7 breast
[53] = system: MDA-N
[54] = system: RPMI-8226 leukemia
[55] = system: SK-MEL-5 melanoma
[56] = system: PC-3 prostate
[57] = system: SK-MEL-2 melanoma
[58] = system: UO-31 renal

CCOC(=O)c1c(SC(=O)C(C)(C)Oc2ccc(Cl)cc2)n(-c2ccccc2)c(=S)n(-c2ccccc2)c1=O
TGI [1]: > 100 µM
TGI [2]: 43.9 µM
TGI [3]: 42.1 µM
TGI [4]: > 100 µM
TGI [5]: 65.3 µM
TGI [6]: > 100 µM
TGI [7]: 36 µM
TGI [8]: 72.7 µM
TGI [9]: 39.3 µM
TGI [10]: 55.2 µM
TGI [11]: > 100 µM
TGI [12]: 47.9 µM
TGI [13]: 52.3 µM
TGI [14]: 75.5 µM
TGI [15]: > 100 µM
TGI [16]: > 100 µM
TGI [17]: 66.4 µM
TGI [18]: > 100 µM
TGI [19]: > 100 µM
TGI [20]: > 100 µM
TGI [21]: 41.7 µM
TGI [22]: > 100 µM
TGI [23]: 73.4 µM
TGI [24]: > 100 µM
TGI [25]: > 100 µM
TGI [26]: > 100 µM
TGI [27]: > 100 µM
TGI [28]: 44.4 µM
TGI [29]: 50 µM
TGI [30]: > 100 µM
TGI [31]: 41 µM
TGI [32]: > 100 µM
TGI [33]: > 100 µM
TGI [34]: > 100 µM
TGI [35]: > 100 µM
TGI [36]: > 100 µM
TGI [37]: 58 µM
TGI [38]: 52.8 µM
TGI [39]: 67.8 µM
TGI [40]: > 100 µM
TGI [41]: > 100 µM
TGI [42]: 60.1 µM
TGI [43]: > 100 µM
TGI [44]: > 100 µM
TGI [45]: 49 µM
TGI [46]: 84.3 µM
TGI [47]: > 100 µM
TGI [48]: > 100 µM
TGI [49]: > 100 µM
TGI [50]: > 100 µM
TGI [51]: 98.9 µM
TGI [52]: 57.2 µM
TGI [53]: > 100 µM

CC(=O)c1c2c(cc3c1CC1(Cc4cc5c(cc4C1)CCCC5)C3)CCCC2
TGI [1]: > 100 µM
TGI [54]: 81.8 µM
TGI [3]: > 100 µM
TGI [4]: > 100 µM
TGI [5]: > 100 µM
TGI [6]: > 100 µM
TGI [7]: > 100 µM
TGI [8]: > 100 µM
TGI [55]: 22.3 µM
TGI [56]: > 100 µM
TGI [9]: > 100 µM
TGI [12]: > 100 µM
TGI [13]: 17.5 µM
TGI [15]: > 100 µM
TGI [16]: > 100 µM
TGI [17]: > 100 µM
TGI [18]: 31.4 µM
TGI [19]: > 100 µM
TGI [57]: 51.3 µM
TGI [20]: > 100 µM
TGI [21]: > 100 µM
TGI [22]: > 100 µM
TGI [23]: > 100 µM
TGI [25]: > 100 µM
TGI [26]: > 100 µM
TGI [27]: > 100 µM
TGI [28]: 38.8 µM
TGI [29]: > 100 µM
TGI [30]: > 100 µM
TGI [31]: > 100 µM
TGI [32]: > 100 µM
TGI [33]: 72.2 µM
TGI [34]: > 100 µM
TGI [35]: > 100 µM
TGI [36]: 53.1 µM
TGI [37]: 38.5 µM
TGI [58]: > 100 µM
TGI [39]: > 100 µM
TGI [40]: > 100 µM
TGI [41]: > 100 µM
TGI [42]: > 100 µM
TGI [45]: > 100 µM
TGI [46]: > 100 µM
TGI [47]: > 100 µM
TGI [48]: 29.4 µM
TGI [49]: > 100 µM
TGI [50]: 55.7 µM
TGI [51]: > 100 µM
TGI [52]: 56.9 µM
TGI [53]: 56.5 µM

N=C1N(/N=C/c2ccccn2)C(=Nc2ccccc2)C(=S)N1c1ccccc1
TGI [1]: 15.9 µM
TGI [2]: 18.3 µM
TGI [54]: > 100 µM
TGI [3]: 13.8 µM
TGI [4]: 19 µM
TGI [5]: 23.8 µM
TGI [6]: 22.9 µM
TGI [7]: 18.8 µM
TGI [8]: 22.8 µM
TGI [55]: 16.5 µM
TGI [56]: 15.8 µM
TGI [9]: 5.36 µM
TGI [10]: 16.3 µM
TGI [11]: 31.2 µM
TGI [12]: 19.8 µM
TGI [13]: > 100 µM
TGI [14]: > 100 µM
TGI [15]: 4.61 µM
TGI [16]: 42.8 µM
TGI [17]: 13.6 µM
TGI [57]: 12.8 µM
TGI [20]: 12.2 µM
TGI [21]: 15.8 µM
TGI [22]: 22.9 µM
TGI [23]: 16.4 µM
TGI [24]: 23 µM
TGI [25]: 10.6 µM
TGI [26]: 21.1 µM
TGI [27]: 23.9 µM
TGI [28]: 7.96 µM
TGI [29]: 17.3 µM
TGI [31]: 20.7 µM
TGI [32]: 17.5 µM
TGI [33]: 42.2 µM
TGI [34]: 19.5 µM
TGI [35]: 22 µM
TGI [36]: 17.4 µM
TGI [37]: > 100 µM
TGI [58]: 16 µM
TGI [38]: 15.9 µM
TGI [39]: 17.9 µM
TGI [40]: 32.9 µM
TGI [41]: 29.4 µM
TGI [42]: 22 µM
TGI [43]: 20 µM
TGI [44]: 13.4 µM
TGI [45]: 8.34 µM
TGI [46]: 3.72 µM
TGI [47]: 11.3 µM
TGI [48]: > 100 µM
TGI [49]: 13.7 µM
TGI [50]: 21.3 µM
TGI [51]: 39.5 µM
TGI [53]: 11.8 µM
